16 compounds from ChEMBL document CHEMBL1132127, “Thrombin inhibitors based on [5,5] trans-fused indane lactams” (Bioorg Med Chem Lett, 1999) can be followed below.

In general, IC50 refers to the concentration at which inhibition is half-maximal. Usually half-life stands for the time needed for the level to fall by half in the phase considered. A high value points to slow decline.

The target in one series is Coagulation factor X (Homo sapiens, UniProt P00742).
Coagulation factor X, sequence (P00742 41-179 limits assumed): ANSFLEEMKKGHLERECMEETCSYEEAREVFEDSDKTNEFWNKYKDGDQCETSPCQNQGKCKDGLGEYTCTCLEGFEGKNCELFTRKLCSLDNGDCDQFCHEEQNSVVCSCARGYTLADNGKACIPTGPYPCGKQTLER
Coagulation factor X, sequence (P00742 235-488 limits assumed): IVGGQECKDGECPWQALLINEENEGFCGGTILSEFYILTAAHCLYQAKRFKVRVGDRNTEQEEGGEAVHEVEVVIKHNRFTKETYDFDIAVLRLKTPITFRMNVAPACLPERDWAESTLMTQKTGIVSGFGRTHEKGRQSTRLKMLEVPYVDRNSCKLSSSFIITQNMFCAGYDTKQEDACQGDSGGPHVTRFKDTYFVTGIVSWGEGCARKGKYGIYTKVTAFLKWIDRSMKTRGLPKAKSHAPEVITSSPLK
Description: Inhibition of activated Coagulation factor X
For the compound `CCN(CC)C(=O)c1cccc(-c2ccc3c(c2)[C@@H]2[C@@H](CCCCC(=N)N)C(=O)N(CCCCCc4ccccc4)[C@H]2C3)c1`, the IC50 was above 50 µM.
As to `CCN(CC)C(=O)c1cccc(-c2ccc3c(c2)[C@@H]2[C@@H](CCCCC(=N)N)C(=O)N(C(=O)OC)[C@H]2C3)c1`, the IC50 was determined as 2.2 µM.
Same read-out and setting: the figure for `CCN(CC)C(=O)c1cccc(-c2ccc3c(c2)[C@@H]2[C@@H](CCCCC(=N)N)C(=O)N(C(=O)OCCCc4ccccc4)[C@H]2C3)c1` is 3.7 µM; for `CCNC(=O)N1C(=O)[C@H](CCCCC(=N)N)[C@H]2c3cc(-c4cccc(C(=O)N(CC)CC)c4)ccc3C[C@@H]21` it is above 100 µM; for `CCN(CC)C(=O)c1cccc(-c2ccc3c(c2)C[C@H]2[C@H]3[C@@H](CCCCC(=N)N)C(=O)N2C(=O)OCCCc2ccccc2)c1` it is 3.6 µM.
`CCN(CC)C(=O)c1cccc(-c2ccc3c(c2)[C@@H]2[C@@H](CCCCC(=N)N)C(=O)N(COC(C)=O)[C@H]2C3)c1` displayed a half-inhibitory concentration (IC50) of 14 µM. Against the preceding compound, the IC50 is about 3.9-fold higher.
As for `N=C(N)CCCC[C@H]1C(=O)N(CCCCCc2ccccc2)[C@H]2Cc3ccccc3[C@H]12`, the IC50 was above 100 µM.
Take `CCN(CC)C(=O)c1cccc(-c2ccc3c(c2)C[C@H]2[C@H]3[C@@H](CCCCC(=N)N)C(=O)N2CCCCCc2ccccc2)c1`: the IC50 is 26 µM.
With `N=C(N)CCCC[C@H]1C(=O)N[C@H]2Cc3ccccc3[C@@H]21`, the IC50 is above 200 µM.
The same measure, in the same setting: the figure for `CCC(=O)N1C(=O)[C@H](CCCCC(=N)N)[C@H]2c3cc(-c4cccc(C(=O)N(CC)CC)c4)ccc3C[C@@H]21` is 9.9 µM; for `COC(=O)CN1C(=O)[C@H](CCCCC(=N)N)[C@H]2c3ccccc3C[C@@H]21` it is above 200 µM.
Take `CCN(CC)C(=O)c1cccc(-c2ccc3c(c2)C[C@H]2[C@H]3[C@@H](CCCCC(=N)N)C(=O)N2C(=O)OC)c1`: the IC50 was 0.12 µM.
For `CCN(CC)C(=O)c1cccc(-c2ccc3c(c2)[C@@H]2[C@@H](CCCCC(=N)N)C(=O)N(C(=O)N(C)C)[C@H]2C3)c1`, the IC50 was above 20 µM.
With `CCN(CC)C(=O)c1cccc(-c2ccc3c(c2)[C@@H]2[C@@H](CCCCC(=N)N)C(=O)N(S(=O)(=O)c4ccccc4)[C@H]2C3)c1`, the IC50 is 0.074 µM.
In the case of `CCOP(=O)(OCC)N1C(=O)[C@H](CCCCC(=N)N)[C@H]2c3ccc(-c4cccc(C(=O)N(CC)CC)c4)cc3C[C@@H]21`, 20 µM corresponded to half-maximal inhibition (IC50). This IC50 lies about 270-fold higher than the previous one.

The next series deals with Prothrombin (Homo sapiens, UniProt P00734).
`CCN(CC)C(=O)c1cccc(-c2ccc3c(c2)[C@@H]2[C@@H](CCCCC(=N)N)C(=O)N(CCCCCc4ccccc4)[C@H]2C3)c1` registered an IC50 of 5 µM. This lies in the single-digit micromolar range.
Turning to `CCN(CC)C(=O)c1cccc(-c2ccc3c(c2)[C@@H]2[C@@H](CCCCC(=N)N)C(=O)N(C(=O)OC)[C@H]2C3)c1`, the IC50 worked out at 0.05 µM. Against the preceding compound, the IC50 is about 100-fold lower.
Still for that read-out and setting: the figure for `CCN(CC)C(=O)c1cccc(-c2ccc3c(c2)[C@@H]2[C@@H](CCCCC(=N)N)C(=O)N(C(=O)OCCCc4ccccc4)[C@H]2C3)c1` is 0.13 µM; for `CCNC(=O)N1C(=O)[C@H](CCCCC(=N)N)[C@H]2c3cc(-c4cccc(C(=O)N(CC)CC)c4)ccc3C[C@@H]21` it is 3 µM.
`CCN(CC)C(=O)c1cccc(-c2ccc3c(c2)C[C@H]2[C@H]3[C@@H](CCCCC(=N)N)C(=O)N2C(=O)OCCCc2ccccc2)c1`: the IC50 was 0.66 µM.
With `CC(=O)O[C@@H]1CC[C@]2(C)C3CC[C@@]4(C)[C@H]5[C@@H](C[C@]4(C)C3=CCC2[C@]1(C)C(=O)O)OC(=O)[C@@H]5CC(=O)C=C(C)C` (stereo partly drawn), half-maximal inhibition (IC50) required 4 µM.
On the same count and under the same terms, next, `CCN(CC)C(=O)c1cccc(-c2ccc3c(c2)[C@@H]2[C@@H](CCCCC(=N)N)C(=O)N(COC(C)=O)[C@H]2C3)c1`: 12 µM; `N=C(N)CCCC[C@H]1C(=O)N(CCCCCc2ccccc2)[C@H]2Cc3ccccc3[C@H]12`: 13 µM.
Same read-out and setting: next, `CCN(CC)C(=O)c1cccc(-c2ccc3c(c2)C[C@H]2[C@H]3[C@@H](CCCCC(=N)N)C(=O)N2CCCCCc2ccccc2)c1`: 5 µM; `N=C(N)CCCC[C@H]1C(=O)N[C@H]2Cc3ccccc3[C@@H]21`: above 200 µM; `CCC(=O)N1C(=O)[C@H](CCCCC(=N)N)[C@H]2c3cc(-c4cccc(C(=O)N(CC)CC)c4)ccc3C[C@@H]21`: 0.38 µM.
The same measure, in the same setting: the figure for `COC(=O)CN1C(=O)[C@H](CCCCC(=N)N)[C@H]2c3ccccc3C[C@@H]21` is 43 µM; for `CCN(CC)C(=O)c1cccc(-c2ccc3c(c2)C[C@H]2[C@H]3[C@@H](CCCCC(=N)N)C(=O)N2C(=O)OC)c1` it is 0.016 µM; for `CCN(CC)C(=O)c1cccc(-c2ccc3c(c2)[C@@H]2[C@@H](CCCCC(=N)N)C(=O)N(C(=O)N(C)C)[C@H]2C3)c1` it is 11 µM.
For the compound `CCN(CC)C(=O)c1cccc(-c2ccc3c(c2)[C@@H]2[C@@H](CCCCC(=N)N)C(=O)N(S(=O)(=O)c4ccccc4)[C@H]2C3)c1`, half-maximal inhibition (IC50) required 0.016 µM.
With `CCOP(=O)(OCC)N1C(=O)[C@H](CCCCC(=N)N)[C@H]2c3ccc(-c4cccc(C(=O)N(CC)CC)c4)cc3C[C@@H]21`, the IC50 is 3.2 µM. This IC50 lies about 200-fold higher than the previous one.

Test system in the next series: not listed separately
The series is described as follows: Half life time in human plasma. The format is ADME, cell-free.
As to `CCN(CC)C(=O)c1cccc(-c2ccc3c(c2)[C@@H]2[C@@H](CCCCC(=N)N)C(=O)N(C(=O)OC)[C@H]2C3)c1`, the half-life was 1020 min.
Compound `N=C(N)CCCC[C@H]1C(=O)N[C@H]2Cc3ccccc3[C@@H]21` displayed a half-life above 1440 min.
The compound `CCN(CC)C(=O)c1cccc(-c2ccc3c(c2)C[C@H]2[C@H]3[C@@H](CCCCC(=N)N)C(=O)N2C(=O)OC)c1` had a half-life of 1440 min.

The target of a further series is Serine protease 1 (Homo sapiens, UniProt P07477).
Serine protease 1, sequence (P07477 whole entry): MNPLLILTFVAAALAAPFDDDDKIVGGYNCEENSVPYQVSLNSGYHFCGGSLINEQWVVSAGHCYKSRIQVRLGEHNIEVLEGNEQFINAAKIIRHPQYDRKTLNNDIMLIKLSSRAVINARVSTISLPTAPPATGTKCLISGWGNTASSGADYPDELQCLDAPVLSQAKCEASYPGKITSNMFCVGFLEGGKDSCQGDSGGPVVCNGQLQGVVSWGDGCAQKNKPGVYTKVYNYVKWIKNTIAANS
In turn, `CCN(CC)C(=O)c1cccc(-c2ccc3c(c2)[C@@H]2[C@@H](CCCCC(=N)N)C(=O)N(CCCCCc4ccccc4)[C@H]2C3)c1` returned an IC50 above 50 µM.
The compound `CCN(CC)C(=O)c1cccc(-c2ccc3c(c2)[C@@H]2[C@@H](CCCCC(=N)N)C(=O)N(C(=O)OC)[C@H]2C3)c1` had an IC50 of 2.2 µM. In other words, the single-digit micromolar range.
`CCN(CC)C(=O)c1cccc(-c2ccc3c(c2)[C@@H]2[C@@H](CCCCC(=N)N)C(=O)N(C(=O)OCCCc4ccccc4)[C@H]2C3)c1` came in with an IC50 of 2.3 µM.
The compound `CCNC(=O)N1C(=O)[C@H](CCCCC(=N)N)[C@H]2c3cc(-c4cccc(C(=O)N(CC)CC)c4)ccc3C[C@@H]21` registered an IC50 above 100 µM.
Still for that read-out and setting: next, `CCN(CC)C(=O)c1cccc(-c2ccc3c(c2)C[C@H]2[C@H]3[C@@H](CCCCC(=N)N)C(=O)N2C(=O)OCCCc2ccccc2)c1`: 0.62 µM; `CCN(CC)C(=O)c1cccc(-c2ccc3c(c2)[C@@H]2[C@@H](CCCCC(=N)N)C(=O)N(COC(C)=O)[C@H]2C3)c1`: 36 µM; `N=C(N)CCCC[C@H]1C(=O)N(CCCCCc2ccccc2)[C@H]2Cc3ccccc3[C@H]12`: 9.7 µM.
Regarding `CCN(CC)C(=O)c1cccc(-c2ccc3c(c2)C[C@H]2[C@H]3[C@@H](CCCCC(=N)N)C(=O)N2CCCCCc2ccccc2)c1`, the IC50 was 8.4 µM.
`N=C(N)CCCC[C@H]1C(=O)N[C@H]2Cc3ccccc3[C@@H]21` showed an IC50 above 200 µM.
`CCC(=O)N1C(=O)[C@H](CCCCC(=N)N)[C@H]2c3cc(-c4cccc(C(=O)N(CC)CC)c4)ccc3C[C@@H]21` returned an IC50 of 8.3 µM.
In the case of `COC(=O)CN1C(=O)[C@H](CCCCC(=N)N)[C@H]2c3ccccc3C[C@@H]21`, the IC50 is above 200 µM.
Same read-out and setting: next, `CCN(CC)C(=O)c1cccc(-c2ccc3c(c2)[C@@H]2[C@@H](CCCCC(=N)N)C(=O)N(C(=O)N(C)C)[C@H]2C3)c1`: above 20 µM; `CCN(CC)C(=O)c1cccc(-c2ccc3c(c2)[C@@H]2[C@@H](CCCCC(=N)N)C(=O)N(S(=O)(=O)c4ccccc4)[C@H]2C3)c1`: 0.066 µM.
The same measure, in the same setting: the figure for `CCOP(=O)(OCC)N1C(=O)[C@H](CCCCC(=N)N)[C@H]2c3ccc(-c4cccc(C(=O)N(CC)CC)c4)cc3C[C@@H]21` is 1.7 µM.
